This is an account of results in paper doi:10.1101/2025.01.28.635346v1 (bioRxiv, 2025).

Like-named read-outs stand apart in the source and are kept apart here. Bridge positions count the residues as written; N and C are the ends. Peptide text beside a SMILES is read from it.

One assay deals with integrin αvβ6 (Homo sapiens, UniProt P06756+P18564). Kind of assay: ELISA competition assay, integrin αvβ6 binding to LAP. A general note: An ELISA detects its analyte on a solid surface through an enzyme-linked reagent.
Assay [1] has as its system αvβ6/8 vs other RGD-integrins. In words: Selectivity and potency gain for αvβ6/8, worked out from integrin IC50 values. It counts as binding, human.
The next assay deals with integrin αvβ8 (Homo sapiens, UniProt P06756+P26012). In words: ELISA competition assay, integrin αvβ8 binding to LAP.
A further assay deals with integrin αvβ3 (Homo sapiens, UniProt P05106+P06756). Kind of assay: ELISA competition assay, integrin αvβ3. The assay is classed as binding.

What is called IC50 is the concentration needed to halve the response being measured. The low end stands for inhibition by little substance, the high end for a need for much substance. On to `CC[C@H](C)[C@H](NC(=O)[C@H](CC(C)C)NC(=O)[C@H](CC(=O)O)NC(=O)CNC(=O)[C@H](CCCNC(=N)N)NC(=O)[C@@H](NC(=O)[C@H](Cc1ccccc1)NC(=O)[C@H](Cc1ccc(O)cc1)NC(=O)[C@@H]1CCC(=O)NCC(=O)NCC(=O)N[C@@H](C)C(=O)NCC(=O)N[C@@H](Cc2c[nH]cn2)C(=O)N[C@@H](C(C)C)C(=O)N2CCC[C@H]2C(=O)N1)C(C)C)C(=O)N[C@@H](CO)C(=O)N[C@@H](Cc1ccccc1)C(=O)N[C@@H](Cc1ccc(O)cc1)C(=O)NCC(=O)O` [lassotide 14] (GGAGHVPEYFVRGDLISFYG-OH; lactam N-8; C-terminus assumed), for which the 50% inhibitory concentration (IC50) at integrin αvβ6 worked out at 84 nM; at integrin αvβ8 it was 116 nM; on integrin αvβ3, 238 nM. Further, in assay [1] (from IC50 values), the “selectivity favoring αvβ6/8 over αvβ3” value is listed as 2-3 fold.
Regarding `CC[C@H](C)[C@H](NC(=O)[C@H](CC(C)C)NC(=O)[C@H](CC(=O)O)NC(=O)CNC(=O)[C@H](CCCNC(=N)N)NC(=O)[C@@H](NC(=O)[C@H](Cc1ccccc1)NC(=O)[C@H](Cc1ccc(O)cc1)NC(=O)[C@@H]1CCC(=O)NCC(=O)NCC(=O)N[C@@H](CCCCN)C(=O)NCC(=O)N[C@@H](Cc2c[nH]cn2)C(=O)N[C@@H](C(C)C)C(=O)N2CCC[C@H]2C(=O)N1)C(C)C)C(=O)N[C@@H](CO)C(=O)N[C@@H](Cc1ccccc1)C(=O)N[C@@H](Cc1ccc(O)cc1)C(=O)N[C@@H](CCCCN)C(=O)O` [lassotide 35] (GGKGHVPEYFVRGDLISFYK-OH; lactam N-8; C-terminus assumed), the IC50 at integrin αvβ6 (αvβ6 IC50, ELISA competition vs LAP, mean, n ≥ 3) is 25 nM; at integrin αvβ8, 36 nM. Besides, the “improvement in potency (IC50) for αvβ6/8 relative to parent lassotide” value in assay [1] (24 and 30 vs 14, 35 vs 28, 36 vs 30, 47 vs 36) was “up to 2 fold”.
